{
  "source": "paper PMC2749987",
  "about": "(European journal of pharmacology, 2009)",
  "key": {"[1]": {"biological_target": "T1, human 5-HT2B receptor (Homo sapiens, UniProt P41595)", "T1 sequence (P41595 whole entry)": "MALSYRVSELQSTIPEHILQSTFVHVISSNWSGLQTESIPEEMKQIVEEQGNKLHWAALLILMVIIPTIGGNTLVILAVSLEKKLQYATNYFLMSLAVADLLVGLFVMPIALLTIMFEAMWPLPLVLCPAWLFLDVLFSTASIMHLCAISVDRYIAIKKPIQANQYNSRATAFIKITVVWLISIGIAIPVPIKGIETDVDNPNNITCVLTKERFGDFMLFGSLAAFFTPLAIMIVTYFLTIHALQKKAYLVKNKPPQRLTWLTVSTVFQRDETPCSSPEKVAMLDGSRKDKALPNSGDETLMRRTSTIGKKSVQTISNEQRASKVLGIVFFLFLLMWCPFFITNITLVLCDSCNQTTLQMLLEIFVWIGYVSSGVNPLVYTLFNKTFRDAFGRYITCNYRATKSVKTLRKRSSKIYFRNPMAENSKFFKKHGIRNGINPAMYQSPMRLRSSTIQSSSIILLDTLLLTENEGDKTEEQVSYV", "assay_type": "binding", "details": "for nH (Hill slope), 5-HT2B binding: competition binding"}, "[2]": {"biological_target": "T2, human 5-HT2C receptor (Homo sapiens, UniProt P28335)", "T2 sequence (P28335 33-458)": "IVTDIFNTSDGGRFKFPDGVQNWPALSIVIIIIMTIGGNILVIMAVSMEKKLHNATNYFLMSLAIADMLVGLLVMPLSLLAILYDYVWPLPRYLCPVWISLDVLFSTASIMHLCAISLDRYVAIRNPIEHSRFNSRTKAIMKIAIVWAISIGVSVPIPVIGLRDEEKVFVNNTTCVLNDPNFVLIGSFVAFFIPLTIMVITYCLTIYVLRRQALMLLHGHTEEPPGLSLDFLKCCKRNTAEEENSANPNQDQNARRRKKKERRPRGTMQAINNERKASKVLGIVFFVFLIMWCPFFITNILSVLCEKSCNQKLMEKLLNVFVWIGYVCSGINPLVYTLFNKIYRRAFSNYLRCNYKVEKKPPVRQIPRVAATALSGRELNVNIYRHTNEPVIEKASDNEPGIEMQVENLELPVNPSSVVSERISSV", "assay_type": "binding", "details": "for nH (Hill slope), 5-HT2C binding: competition binding"}, "[3]": {"biological_target": "T3, human 5-HT2A receptor (Homo sapiens, UniProt P28223)", "T3 sequence (P28223 whole entry)": "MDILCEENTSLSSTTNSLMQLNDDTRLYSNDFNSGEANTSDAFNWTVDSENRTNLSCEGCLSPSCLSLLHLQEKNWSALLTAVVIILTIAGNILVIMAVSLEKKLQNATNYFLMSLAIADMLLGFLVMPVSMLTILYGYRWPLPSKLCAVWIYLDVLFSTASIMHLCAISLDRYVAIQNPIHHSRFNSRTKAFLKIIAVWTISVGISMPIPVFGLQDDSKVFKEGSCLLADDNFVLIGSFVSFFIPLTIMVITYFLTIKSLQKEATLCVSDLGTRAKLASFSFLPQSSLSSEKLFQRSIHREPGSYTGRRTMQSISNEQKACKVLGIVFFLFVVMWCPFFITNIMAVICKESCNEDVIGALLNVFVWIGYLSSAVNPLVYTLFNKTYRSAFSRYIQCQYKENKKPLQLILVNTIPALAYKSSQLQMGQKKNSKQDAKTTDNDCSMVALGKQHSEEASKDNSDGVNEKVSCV", "assay_type": "cell-based"}, "[4]": {"biological_target": "T3, human 5-HT2A receptor", "assay_type": "binding", "details": "for nH (Hill slope), 5-HT2A binding: competition binding"}, "[5]": {"biological_target": "T1, human 5-HT2B receptor"}, "[6]": {"biological_target": "T2, human 5-HT2C receptor", "assay_type": "cell-based"}, "[7]": {"tested_on": "mice", "details": "intraperitoneal single-dose, ref Rowland et al., 2008, cited from earlier work"}, "[8]": {"tested_on": "5-HT2A", "details": "ref Knight et al., 2004; cited from earlier work"}, "[9]": {"tested_on": "rats", "details": "oral single-dose, ref Thomsen et al., 2008, cited from earlier work"}, "[10]": {"tested_on": "5-HT2B receptors", "details": "ref Jensen, 2006, Smith et al., Thomsen et al., 2008; cited from earlier work"}, "[11]": {"biological_target": "5-HT2A receptors", "details": "read-out: affinity at 5-HT2A receptors Ki, ref Jensen, 2006, Smith et al., Thomsen et al., 2008; cited from earlier work"}, "[12]": {"biological_target": "5-HT2B receptors", "details": "read-out: affinity at 5-HT2B receptors Ki, ref Jensen, 2006, Smith et al., Thomsen et al., 2008; cited from earlier work"}, "[13]": {"tested_on": "5-HT2C receptors", "details": "ref Jensen, 2006, Smith et al., Thomsen et al., 2008; cited from earlier work"}, "[14]": {"tested_on": "5-HT2A receptors", "details": "ref Jensen, 2006, Smith et al., Thomsen et al., 2008; cited from earlier work"}, "[15]": {"details": "read-out: 5-HT2B Ki ± SEM, competition vs 5.0 nM [3H]-mesulergine"}, "[16]": {"details": "read-out: 5-HT2A Ki ± SEM, competition vs 1.0 nM [3H]-ketanserin"}},
  "note": "Like-named read-outs stand apart in the source and are kept apart here.",
  "data": [
    {"smiles": "CN(C)[C@@H]1Cc2ccccc2[C@@H](c2ccccc2)C1", "note": "(relative stereo) [(−)-trans-PAT, (1R,3S)-(−)-trans-1-phenyl-3-dimethylamino-1,2,3,4-tetrahydronaphthalene]", "values": [
      {"measurement": "nH (Hill slope), 5-HT2B binding", "setting": "[1]", "value": "1.0 ± 0.001"},
      {"measurement": "Ki", "setting": "[1]; [15]", "value": 1200, "unit": "nM"},
      {"measurement": "Ki", "setting": "[1]; read-out: 5-HT2B receptor affinity Ki, as quoted in text from Table", "value": "~1200", "unit": "nM"},
      {"measurement": "difference in affinity at 5-HT2A and 5-HT2C receptors", "setting": "[2]", "value": 10, "unit": "times"},
      {"measurement": "nH (Hill slope), 5-HT2C binding", "setting": "[2]", "value": "0.9 ± 0.1"},
      {"measurement": "nH, inverse agonism at 5-HT2A receptors", "setting": "[3]", "value": "0.85 ± 0.01"},
      {"measurement": "stimulation of PLC/[3H]-IP formation in cells expressing 5-HT2A receptors", "setting": "[3]", "value": "does not stimulate"},
      {"measurement": "(maximal) inhibition of constitutive signaling at 5-HT2A receptors", "setting": "[3]; 10 μM", "value": "57.6 ± 5.66", "unit": "%"},
      {"measurement": "pA2, 5-HT2A receptors", "setting": "[3]; vs serotonin", "value": 6.3},
      {"measurement": "nH (Hill slope), 5-HT2A binding", "setting": "[4]", "value": "1.1 ± 0.1"},
      {"measurement": "Ki", "setting": "[4]; [16]", "value": "410 ± 38", "unit": "nM"},
      {"measurement": "Ki", "setting": "[4]; read-out: 5-HT2A receptor affinity Ki, as quoted in text from Table", "value": "~400", "unit": "nM"},
      {"measurement": "nH, inverse agonism at 5-HT2B receptors", "setting": "[5]", "value": "0.87 ± 0.23"},
      {"measurement": "stimulation of PLC/[3H]-IP formation in cells expressing 5-HT2B receptors", "setting": "[5]", "value": "does not stimulate"},
      {"measurement": "(maximal) inhibition of constitutive signaling at 5-HT2B receptors", "setting": "[5]; 10 μM", "value": "35.3 ± 2.00", "unit": "%"},
      {"measurement": "pA2, 5-HT2B receptors", "setting": "[5]; vs serotonin", "value": 5.8},
      {"measurement": "potency (EC50) to activate 5-HT2C receptors greater than 5-HT2C affinity (Ki)", "setting": "[6]", "value": "about 2 times"},
      {"measurement": "Emax, 5-HT2C activation", "setting": "[6]; CHO cells", "value": "464 ± 10.8", "unit": "% basal control activity"},
      {"measurement": "nH, 5-HT2C activation", "setting": "[6]; CHO cells", "value": "0.75 ± 0.13"},
      {"measurement": "maximal reduction of food intake", "setting": "[7]; at 10 mg/kg", "value": "about 75%"},
      {"measurement": "ED50, reduction of food intake", "setting": "[7]", "value": 4.2, "unit": "mg/kg"}
    ]},
    {"smiles": "CN(C)[C@H]1Cc2ccccc2[C@@H](c2ccccc2)C1", "note": "[(+)-cis-PAT]", "values": [
      {"measurement": "nH (Hill slope), 5-HT2B binding", "setting": "[1]", "value": "~1.0"},
      {"measurement": "Ki", "setting": "[1]; [15]", "value": "~5000", "unit": "nM"},
      {"measurement": "nH (Hill slope), 5-HT2C binding", "setting": "[2]", "value": "0.9 ± 0.1"},
      {"measurement": "nH (Hill slope), 5-HT2A binding", "setting": "[4]", "value": "0.9 ± 0.2"},
      {"measurement": "Ki", "setting": "[4]; [16]", "value": "780 ± 2", "unit": "nM"}
    ]},
    {"smiles": "CN(C)[C@@H]1Cc2ccccc2[C@H](c2ccccc2)C1", "note": "[(−)-cis-PAT]", "values": [
      {"measurement": "nH (Hill slope), 5-HT2B binding", "setting": "[1]", "value": "~1.0"},
      {"measurement": "Ki", "setting": "[1]; [15]", "value": "~10000", "unit": "nM"},
      {"measurement": "nH (Hill slope), 5-HT2C binding", "setting": "[2]", "value": "0.90 ± 0.04"},
      {"measurement": "nH (Hill slope), 5-HT2A binding", "setting": "[4]", "value": "1.0 ± 0.1"},
      {"measurement": "Ki", "setting": "[4]; [16]", "value": "1500 ± 2", "unit": "nM"}
    ]},
    {"smiles": "COc1cccc([C@H](O)C2CCN(CCc3ccc(F)cc3)CC2)c1OC", "note": "[M100907]", "values": [
      {"measurement": "5-HT2A selectivity over 5-HT2B receptors", "setting": "[8]", "value": 500, "unit": "times"},
      {"measurement": "5-HT2A selectivity over 5-HT2C receptors", "setting": "[8]", "value": 15, "unit": "times"}
    ]},
    {"smiles": "[3H]C([3H])(N1CCC(C(=O)c2ccc(F)cc2)CC1)C([3H])([3H])n1c(=O)[nH]c2ccccc2c1=O", "note": "[[^3H]-Ketanserin, reference compound]", "values": [
      {"measurement": "Bmax, 5-HT2A receptors", "setting": "[4]; saturation binding", "value": "1.73 ± 0.11", "unit": "pmol/mg protein"}
    ]},
    {"smiles": "C[C@H]1CNCCc2ccc(Cl)cc21", "note": "[lorcaserin]", "values": [
      {"measurement": "maximal reduction of food intake", "setting": "[9]; at 24 mg/kg", "value": "about 60%"},
      {"measurement": "ED50, reduction of food intake", "setting": "[9]", "value": 18, "unit": "mg/kg"},
      {"measurement": "efficacy, activation of 5-HT2B receptors", "setting": "[10]", "value": 100, "unit": "%"},
      {"measurement": "Ki", "setting": "[11]", "value": "~112", "unit": "nM"},
      {"measurement": "Ki", "setting": "[12]", "value": "~174", "unit": "nM"},
      {"measurement": "affinity for 5-HT2C receptors higher than at 5-HT2A receptors", "setting": "[13]", "value": "about 7.5 times"},
      {"measurement": "affinity for human 5-HT2C over 5-HT2B receptors", "setting": "[13]", "value": "about 12 times"},
      {"measurement": "efficacy, activation of 5-HT2A receptors", "setting": "[14]", "value": 75, "unit": "%"}
    ]}
  ]
}
